This is an account of results in PMC12719775, “Alexidine is a TAZ-specific small-molecule inhibitor that suppresses breast cancer invasion and metastasis” (iScience, 2025).

What all share (format): biochemical
For one assay, the target named is T1, TAZ (Homo sapiens, UniProt Q9GZV5).
T1 construct: gene WWTR1; endogenous full-length TAZ in HEK293T freeze-thaw lysate (Methods: endogenous)
The experiment in a line: cellular thermal shift assay (CETSA) with western blot. The settings on record: 100 μM alexidine, 4 h at 4 °C, HEK293T lysate, heated 25-60 °C; destabilising shift. (In general: A western blot detects proteins with antibodies after separation by electrophoresis.)

The target of assay [1] is T2, GST-TAZ / Venus-Flag-TEAD1 (VF-TEAD1) (Homo sapiens, UniProt Q9GZV5).
T2 construct: gene WWTR1; with Transcriptional enhancer factor TEF-1
The experiment in a line: GST pull-down with western blot densitometry. As to conditions: HEK293T lysate, 18 h at 4 °C; protein-protein interaction inhibition.

The target of assay [2] is T3, TAZ-TEAD biosensor (FLAG-SmBiT-TAZ / His-LgBiT-TEAD1) (Homo sapiens, UniProt Q9GZV5).
T3 construct: gene WWTR1; FLAG-SmBiT-TAZ aa 13-119 and His-LgBiT-TEAD1 aa 194-411 co-expressed in HEK293T; cell lysate; tags kept; with Transcriptional enhancer factor TEF-1
The experiment in a line: TR-FRET dose response (anti-FLAG-Tb / anti-His-D2), disruption of TAZ-TEAD1 interaction. As to conditions: HEK293T lysate, 18 h; protein-protein interaction inhibition. A general note: Time-resolved FRET reads energy transfer from a long-lived donor to a nearby acceptor.

T3 sequence (Q9GZV5 13-119): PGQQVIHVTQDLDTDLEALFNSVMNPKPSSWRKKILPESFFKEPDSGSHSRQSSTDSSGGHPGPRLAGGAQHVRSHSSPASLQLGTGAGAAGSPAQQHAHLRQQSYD
T3 sequence (P28347 209-426 partner): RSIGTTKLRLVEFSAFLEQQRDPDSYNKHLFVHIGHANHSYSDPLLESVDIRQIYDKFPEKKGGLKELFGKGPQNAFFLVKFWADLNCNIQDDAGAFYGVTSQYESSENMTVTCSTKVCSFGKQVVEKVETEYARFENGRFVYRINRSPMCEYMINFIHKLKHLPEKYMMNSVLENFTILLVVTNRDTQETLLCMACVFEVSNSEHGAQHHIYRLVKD
T2 sequence (Q9GZV5 whole entry): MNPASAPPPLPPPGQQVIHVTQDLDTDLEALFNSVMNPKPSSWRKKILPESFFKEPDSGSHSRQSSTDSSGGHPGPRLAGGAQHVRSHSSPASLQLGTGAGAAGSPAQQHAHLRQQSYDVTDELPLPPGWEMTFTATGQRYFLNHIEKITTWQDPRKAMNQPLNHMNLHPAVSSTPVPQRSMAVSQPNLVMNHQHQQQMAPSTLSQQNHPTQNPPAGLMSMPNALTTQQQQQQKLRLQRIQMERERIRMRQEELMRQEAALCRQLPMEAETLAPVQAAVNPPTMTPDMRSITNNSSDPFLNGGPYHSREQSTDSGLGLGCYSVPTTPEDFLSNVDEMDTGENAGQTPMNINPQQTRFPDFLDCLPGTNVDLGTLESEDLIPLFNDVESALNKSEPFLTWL
T2 sequence (P28347 whole entry partner): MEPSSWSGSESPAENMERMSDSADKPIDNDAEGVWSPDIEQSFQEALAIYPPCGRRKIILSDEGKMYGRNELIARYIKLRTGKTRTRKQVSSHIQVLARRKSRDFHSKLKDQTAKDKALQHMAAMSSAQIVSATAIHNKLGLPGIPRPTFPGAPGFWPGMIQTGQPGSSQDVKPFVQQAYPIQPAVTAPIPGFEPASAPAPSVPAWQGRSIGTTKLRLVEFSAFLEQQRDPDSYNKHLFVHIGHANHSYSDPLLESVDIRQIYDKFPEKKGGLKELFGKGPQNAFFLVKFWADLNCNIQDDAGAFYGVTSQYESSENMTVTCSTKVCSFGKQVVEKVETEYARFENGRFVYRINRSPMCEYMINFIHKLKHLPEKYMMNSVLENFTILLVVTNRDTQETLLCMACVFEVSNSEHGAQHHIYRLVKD
T1 sequence (Q9GZV5 whole entry): as the sequence (Q9GZV5 whole entry) above

Regarding `CCCCC(CC)CNC(=N)NC(=N)NCCCCCCNC(=N)NC(=N)NCC(CC)CCCC` (stereo not drawn) [alexidine], at TAZ, the Tm result is “A reduction in TAZ rather than TEAD stability and melting temperature (Tm) was observed”. The “% PPI signal” value in assay [1] is “inhibition of GST-TAZ and VF-TEAD1 interaction was achieved by alexidine treatment”. Besides, the TR-FRET signal entry in assay [2] was “alexidine disrupted TAZ- TEAD PPI in a dose-dependent manner”.
